Reference: ChEMBL document CHEMBL3352806, “Cytotoxic bibenzyl dimers from the stems of Dendrobium fimbriatum Hook” (Bioorg Med Chem Lett, 2014)
Activity calls are given as the source filed them. The calls are words filed in the database; no cut-off is given here.

Key:
Type in all cases: functional, cell-based
HL-60 = assay: Cytotoxicity against human HL60 cells assessed as reduction in cell number at 40 uM
MCF7 [1] = assay: Cytotoxicity against human MCF7 cells assessed as reduction in cell number at 40 uM
A549 [2] = assay: Cytotoxicity against human A549 cells assessed as reduction in cell number at 40 uM
SMMC-7721 [3] = assay: Cytotoxicity against human SMMC7721 cells assessed as reduction in cell number at 40 uM
SW480 [4] = assay: Cytotoxicity against human SW480 cells assessed as reduction in cell number at 40 uM
MCF7 [5] = assay: Cytotoxicity against human MCF7 cells assessed as reduction in cell number
[6] = Cytotoxicity against human HL60 cells assessed as reduction in cell number; conditions: HL-60
SW480 [7] = assay: Cytotoxicity against human SW480 cells assessed as reduction in cell number
A549 [8] = assay: Cytotoxicity against human A549 cells assessed as reduction in cell number
SMMC-7721 [9] = assay: Cytotoxicity against human SMMC7721 cells assessed as reduction in cell number

| Structure (SMILES) | Activity (HL-60) | Activity (MCF7 [1]) | Activity (A549 [2]) | Activity (SMMC-7721 [3]) | Activity (SW480 [4]) | IC50 (MCF7 [5]) [µM] | IC50 [6] [µM] | IC50 (SW480 [7]) [µM] | IC50 (A549 [8]) [µM] | IC50 (SMMC-7721 [9]) [µM] |
| --- | --- | --- | --- | --- | --- | --- | --- | --- | --- | --- |
| COc1cc(O)cc(CCc2ccc(O)c(OC)c2)c1 | inactive | inactive | inactive | inactive | inactive | – | – | – | – | – |
| COc1cc(O)c(Cc2c(O)cc(OC)cc2CCc2ccc(O)c(OC)c2)c(CCc2ccc(O)c(OC)c2)c1 | – | – | – | – | – | 13.7 | 19.1 | 18.8 | 16.6 | 17.5 |
| Oc1cc(O)c2c(c1)C[C@H](O)c1cccc(O)c1-2 | inactive | inactive | inactive | inactive | inactive | – | – | – | – | – |
| COc1cc(O)c(Cc2c(CCc3ccc(O)c(OC)c3)cc(O)cc2OC)c(CCc2ccc(O)c(OC)c2)c1 | – | – | – | – | – | 7.75 | 16.8 | 21.2 | 16.5 | 18.9 |
| COc1cc(CC(OC)c2cc(OC)c(O)c(OC)c2)ccc1O (stereo not given) | inactive | inactive | inactive | inactive | inactive | – | – | – | – | – |
| COc1cc(CCc2cc(O)cc(O)c2Cc2c(O)cc(O)cc2CCc2ccc(O)c(OC)c2)ccc1O | inactive | inactive | inactive | inactive | inactive | – | – | – | – | – |
| COc1cc(O)c(Cc2c(O)cc(CCc3ccc(O)c(OC)c3)cc2OC)c(CCc2ccc(O)c(OC)c2)c1 | – | – | – | – | – | 12.7 | 16.1 | 17.2 | 16.3 | 18.3 |
| COc1cc(CCc2cc(O)c(Cc3c(CCc4ccc(O)c(OC)c4)cc(O)cc3OC)c(OC)c2)ccc1O | – | – | – | – | – | 12.1 | 15.8 | 18.2 | 15.6 | 16.6 |
| COc1ccc(CCc2cc(OC)c(O)c(OC)c2)cc1O | – | – | – | – | – | 12.3 | 2.95 | 5.17 | 6.6 | 10.1 |
| COc1cc(CCc2cc(O)cc(O)c2)ccc1O | inactive | inactive | inactive | inactive | inactive | – | – | – | – | – |
| COc1cc(O)cc(CCc2cccc(O)c2)c1 | inactive | inactive | inactive | inactive | inactive | – | – | – | – | – |
| COc1cc(CCc2cc(O)c(Cc3c(CCc4cccc(O)c4)cc(O)cc3OC)c(OC)c2)ccc1O | – | – | – | – | – | 24.8 | 22.3 | > 40 | > 40 | > 40 |
| COc1cc(CCc2cc(OC)c(O)c(OC)c2)ccc1O [MOSCATILIN] | – | – | – | – | – | 6.2 | 2.18 | 6.88 | 5.73 | 4.07 |
| COc1cc(CCc2cc(O)c(OC)c(OC)c2)ccc1O | – | – | – | – | – | 37.1 | 24.3 | > 40 | > 40 | > 40 |
| COc1cc(CCc2cc(O)cc(OC)c2Cc2c(CCc3ccc(O)c(OC)c3)cc(O)cc2OC)ccc1O | – | – | – | – | – | 5.85 | 13.9 | 18.8 | 14.5 | 16.9 |
